Measured values from PubChem BioAssay (NCI).
“And” between values parts separate entries of the source, which are not always exact repeats. Equal values may be shown once.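 Five compound concentrations were applied to cells in 96-well plates for 48 hours; endpoints were derived by simple linear interpolation of the resulting dose-response curve. GI50 marks 50% less growth. At the TGI there is no net growth.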

Legend:
Assay in all cases: growth of human tumour cells (NCI), 48 h
DLD-1 colon = tested on: DLD-1 colon
LXFL 529 NSCLC = tested on: LXFL 529 NSCLC
XF 498 CNS = tested on: XF 498 CNS
SNB-78 CNS = tested on: SNB-78 CNS
KM20L2 colon = tested on: KM20L2 colon
HOP-18 NSCLC = tested on: HOP-18 NSCLC
RXF-631 renal = tested on: RXF-631 renal
MDA-N = tested on: MDA-N
DMS 273 small cell lung = tested on: DMS 273 small cell lung

Row | Compound | TGI (DLD-1 colon) | TGI (LXFL 529 NSCLC) | TGI (XF 498 CNS) | TGI (SNB-78 CNS) | TGI (KM20L2 colon) | TGI (HOP-18 NSCLC) | TGI (MDA-N) | TGI (DMS 273 small cell lung) | also measured
1 | COC(=O)C(C(=O)C(=O)Nc1ccc([N+](=O)[O-])cc1)c1nc2cc(C)c(C)cc2[nH]c1=O (stereo not drawn) | > 100 µM | > 100 µM | > 100 µM | > 100 µM | > 100 µM | > 100 µM | – | – | –
2 | C[CH2][Sn]([Cl])([CH2]C)[CH2]C | 15.8 µM | 3.27 µM | 3.26 µM | 5.04 µM | 2.99 µM | – | – | – | GI50 (DLD-1 colon): 0.973 µM; GI50 (LXFL 529 NSCLC): 0.469 µM; GI50 (XF 498 CNS): 0.867 µM; GI50 (SNB-78 CNS): 0.922 µM; GI50 (KM20L2 colon): 0.524 µM
3 | O=c1nc(-c2ccccc2)scc1-c1ccccc1 | > 100 µM | > 100 µM | > 100 µM | – | > 100 µM | > 100 µM | – | – | TGI (RXF-631 renal): > 100 µM
4 | NCC(=O)NC(CO)C(=O)O (stereo not drawn) | – | – | – | – | – | – | > 100 µM | – | –
5 | Cc1cc2c(=O)c3ccccc3oc2c(C#N)c1C | – | – | – | – | – | – | > 100 µM | – | –
6 | C/C=C/C=C\C(=O)C1c2cccc(O)c2C(=O)c2c(O)cc(C)cc21 (stereo not drawn) | 3.67 µM | – | 0.57 µM | – | 3.94 µM | 3.32 µM | – | 3.06 µM | –
7 | O=c1[nH]c(=O)n(C2OC(CO)C(O)C2O)cc1OCc1ccccc1 (stereo not drawn) | > 78 µM | > 100 µM | > 100 µM | > 100 µM | > 100 µM | > 100 µM | – | > 100 µM | TGI (RXF-631 renal): > 100 µM
8 | C[C@]12CC/C(=N\OC(=O)Nc3ccccc3)C=C1CC[C@@H]1C2CC[C@@]2(C)C1CC[C@@H]2OC(=O)Nc1ccccc1 (stereo partly drawn) | – | > 100 µM | 27.3 µM | > 100 µM | > 100 µM | > 100 µM | – | > 100 µM | –
9 | Nc1nc(Cl)nc2c1ncn2C1CCC(COP(=O)(O)OP(=O)(O)OP(=O)(O)O)O1 (stereo not drawn) | – | – | – | – | – | – | > 100 µM | – | –
10 | CCC[CH2][Ge]([CH2]CCC)([CH2]CCC)[O]C(=O)C(OC(C)=O)c1ccccc1 (stereo not drawn) | 19 µM | 21 µM | 15.4 µM | 24.7 µM | 15.2 µM | 43.8 µM | – | > 37 µM | GI50 (DLD-1 colon): 1.76 µM; GI50 (DMS 273 small cell lung): 5.84 µM; GI50 (LXFL 529 NSCLC): 1.31 µM; GI50 (XF 498 CNS): 2.57 µM; GI50 (SNB-78 CNS): 2.99 µM; GI50 (KM20L2 colon): 0.652 µM; GI50 (HOP-18 NSCLC): 16.2 µM
11 | COc1ccc(CCN2COc3ccc4ccc(=O)oc4c3C2)cc1OC | – | – | – | – | – | – | > 100 µM | – | –
12 | Cc1cc(O)c(O)c(Oc2cc(C)cc(O)c2O)c1 | – | – | – | – | – | – | > 100 µM | – | –
13 | CCOC1=C2C(C)(CCC3[C@@]4(C)C=CC(=O)C(C)(C)C4CC(O)[C@@]23C)C(c2ccoc2)C1=O (stereo partly drawn) | 29.7 µM | – | – | > 100 µM | 32 µM | > 100 µM | – | > 100 µM | TGI (RXF-631 renal): 70.5 µM
14 | CS(=O)(=O)N(CC(=O)O)Cc1ccccc1 | – | – | – | – | – | – | > 100 µM | – | –
15 | CCOC(=O)/C(=C/c1ccc(Cl)cc1)N(CC)CC | > 100 µM | > 100 µM | > 100 µM | > 100 µM | – | > 100 µM | – | – | –
16 | O=C(NCc1cccs1)OC1CC2CCC1C2 (stereo not drawn) | – | – | – | – | – | – | > 100 µM | – | –
17 | Cc1ccc2nc(CC(=O)c3ccc4ccccc4c3)c(=O)[nH]c2c1 | – | – | – | – | – | – | > 100 µM | – | –
18 | COc1cccc(N2C(=O)[C@H]3[C@H]4CC(C(C)(C)C)CC[C@H]4c4c([nH]c5ccccc45)[C@H]3C2=O)c1 (stereo partly drawn) | 65.1 µM | 42.3 µM | – | 35.3 µM | – | – | – | 36.8 µM | TGI (RXF-631 renal): 33.2 µM
19 | N#CC(C(=O)C(=O)Nc1ccc(Cl)c(Cl)c1)c1ccc(Cl)cc1 (stereo not drawn) | > 100 µM | > 100 µM | > 100 µM | > 100 µM | > 100 µM | > 100 µM | – | > 100 µM | –

Row | Compound | TGI (DLD-1 colon) | TGI (LXFL 529 NSCLC) | TGI (XF 498 CNS) | TGI (SNB-78 CNS) | TGI (KM20L2 colon) | TGI (HOP-18 NSCLC) | TGI (MDA-N) | TGI (DMS 273 small cell lung) | also measured
20 | COc1ccc2c([nH]c3cc(O)c(C)cc32)c1CC=C(C)C | > 25 µM | > 25 µM | > 25 µM | > 25 µM | > 25 µM | – | – | 16.8 µM | GI50 (DLD-1 colon): 9.22 µM; GI50 (DMS 273 small cell lung): 8.43 µM; GI50 (LXFL 529 NSCLC): 8.63 µM; GI50 (KM20L2 colon): 16.3 µM
21 | O=[N+]([O-])c1ccc(NN=C2c3ccccc3Cc3ccccc32)c([N+](=O)[O-])c1 | – | – | – | – | – | – | 7.75 µM | – | –
22 | CN1CCc2cc(O)c3cc2C1Cc1ccc(cc1)Oc1cc(ccc1O)CC1c2c(cc4c(c2O3)OCO4)CCN1C (stereo not drawn) | > 100 µM | – | 29.2 µM | > 100 µM | 45.9 µM | – | – | 86.2 µM | –
23 | O=C(NCCCCCCNC(=O)NC1OCC(O)C(O)C1O)NC1OCC(O)C(O)C1O (stereo not drawn) | > 100 µM | > 100 µM | – | > 100 µM | – | – | – | – | –
24 | CCCC(=O)Nc1ncnc2c1ncn2C1OC2COP(=O)(O)OC2C1OC(=O)CCC (stereo not drawn) | – | – | – | – | – | – | > 1000 µM | – | GI50 (MDA-N): > 1000 µM
25 | COc1cc2c3c(c1OCc1ccccc1)NCCC3NCC2 (stereo not drawn) | > 100 µM | > 100 µM | > 100 µM | > 100 µM | > 100 µM | – | – | > 100 µM | TGI (RXF-631 renal): > 100 µM
26 | C/C=C(\C)C(=O)OC1C2C(C)C(=O)OC2C(O)C(C)C2C=CC(=O)C21C (stereo not drawn) | – | – | – | – | – | – | 22.8 µM | – | –
27 | CCCCCCCCCCCCCC(=O)OC1C(CO)OC(=O)C1O (stereo not drawn) | > 100 µM | > 100 µM | > 100 µM | > 100 µM | > 100 µM | > 100 µM | – | > 100 µM | –
28 | O=C1C2C3CCC(C2C(=O)N1CO)C1C2C(=O)N(CO)C(=O)C2C31 (stereo not drawn) | > 65.6 µM | > 100 µM | > 100 µM | > 100 µM | > 79.8 µM | 34.2 µM | – | > 58.1 µM | –
29 | CN1CCN(CCCN2c3ccccc3Sc3ccc(C(F)(F)F)cc32)CC1 | 26.9 µM | 23 µM | – | 32.1 µM | 5.22 µM | 21.5 µM | 12.5 µM and 12.3 µM | 19.8 µM | –
30 | CO[C@]12CCC(=O)N1C=Cc1c2[nH]c2ccccc12 | > 100 µM | > 100 µM | – | > 100 µM | – | > 100 µM | – | – | –
31 | N#CC(C#N)=Cc1ccc(Oc2ccccc2)cc1 | 20.6 µM | 56.7 µM | > 100 µM | > 90.8 µM | > 100 µM | 89.8 µM | – | 37 µM | TGI (RXF-631 renal): > 100 µM
32 | CC1=C2[C@@H](c3ccccc3)C3C=CC2(c2ccccc23)N(C(=O)Nc2cccc3ccccc23)C1=O (stereo partly drawn) | – | > 100 µM | > 100 µM | > 100 µM | > 100 µM | > 100 µM | – | > 100 µM | –
33 | CC(=O)OCc1c(C)c2ccccc2n1C(C)=O | – | – | 84.6 µM | – | > 100 µM | > 100 µM | – | 59.9 µM | TGI (RXF-631 renal): 66.9 µM
34 | CCOC(=O)NN(C(=O)OCC)C(C(=O)c1ccc(Cl)cc1)=C1NCCN1 | > 100 µM | > 100 µM | > 100 µM | > 100 µM | > 100 µM | > 100 µM | – | > 100 µM | –
35 | CN/N=C(/CC(=O)c1sc(-n2nc(-c3ccccc3)cc2-c2ccccc2)nc1C)C(=O)Nc1ccc(Cl)c(Cl)c1 | > 100 µM | > 100 µM | – | > 100 µM | – | – | – | – | –
36 | CC(C)N(C(=O)C12C3C4C5C3C1(C#N)C5C42)C(C)C (stereo not drawn) | > 100 µM | > 100 µM | > 100 µM | > 100 µM | > 100 µM | > 100 µM | – | > 100 µM | –
37 | Cc1ccc(S(=O)(=O)NC(=O)C#CCOC2CCCCO2)cc1 (stereo not drawn) | > 100 µM | > 100 µM | > 100 µM | – | > 100 µM | > 100 µM | – | > 100 µM | TGI (RXF-631 renal): > 100 µM
